Source: US7125564B2, “Water soluble and palatable complexes” (Lavipharm Laboratories, Inc., priority 2001, dated 2006)
Converted amounts (≈) assume the structure as drawn. Structures can show the parent of a compound that is named as a salt.

Legend:
[1] = cited from earlier work; for bioavailability: oral administration
[2] = cited from earlier work
[3] = Water solubility of active agent with and without glycyrrhizin ammonium (24 h rotation, filtration, HPLC); settings: versus control with zero glycyrrhizin, 0.1 M glycyrrhizin ammonium, distilled water, room temperature
[4] = cited from earlier work; remark: listed apart in the source
[5] = physchem; settings: thermodynamic from solid

**Q.** What does the source list for `CCCc1nn(C)c2c(=O)[nH]c(-c3cc(S(=O)(=O)N4CCN(C)CC4)ccc3OCC)nc12` [Sildenafil citrate]?
**A.** bioavailability [1]: about 40%; solubility ([2]; formulated as a regular film tablet): 6 to 8 mg/mL

**Q.** For “5-[-2-ethoxy-5-(4-methylpiperazin-1ylsulphonyl)phenyl]-1-methyl -3-n-propyl-1,6-dihydro-7H-pyrazolo[4,3-d]pyrimidine [sildenafil]”, which “increase of solubility through complexation with glycyrrhizin” value [3] is on record?
**A.** The value was 200 fold.

**Q.** What about the “increase of solubility through complexation with glycyrrhizin” value ([3]; listed as sildenfil) of the same compound?
**A.** The value was “more than 200 fold”.

**Q.** What does the source list for `O=C1CC2(CCCC2)CC(=O)N1CCCCN1CCN(c2ncccn2)CC1` [buspirone, 8-[4-[4-(2-pyrimidinyl)1-piperazinyl]butyl]-8-azaspiro(4,5)-decane-7,9-dione]?
**A.** biological half-life ([4]; in man): 2–11 hours; interindividual variation of the maximum plasma concentration ([4]; oral): up to 10 fold; solubility at 24 h ([5]; aqueous with cosolvent or surfactant or cyclodextrin): 44000 µg/mL (≈ 114000 µM); solubility at 24 h ([5]; water): 380 µg/mL (≈ 986 µM)

**Q.** Which “time to peak plasma concentration” value ([1]; after oral administration) does the source give for `NC(N)=Nc1nc(CSCCC(N)=NS(N)(=O)=O)cs1` [famotidine, N′(aminosulfonyl)-3-[[[2-[(diaminomethylene)amino]-4-thiazolyl]methyl]thio] propanimidamide] here?
**A.** Its value is 1 to 3.5 h.

**Q.** What about the bioavailability [1] of the same compound?
**A.** Its bioavailability is “approximately 43%”.

**Q.** What about the “effect of food on bioavailability” value ([1]; tablet formulation) of the same compound?
**A.** Its value is “unaffected by food”.

**Q.** And the intrinsic water solubility [2]?
**A.** The intrinsic water solubility was 0.278 mg/mL.

**Q.** What about the pKa [2] of the same compound?
**A.** The pKa was 6.8.

**Q.** What about the solubility in ethanol ([2]; ethanol) of the same compound?
**A.** The solubility in ethanol was “insoluble”.

**Q.** And the “solubility in glacial acetic acid” value ([2]; glacial acetic acid)?
**A.** Its value is “freely soluble”.

**Q.** And the solubility in water ([2]; water)?
**A.** The solubility in water was “very slightly soluble”.

**Q.** What about the solubility at 24 h ([5]; water) of the same compound?
**A.** The solubility at 24 h was less than 1000 µg/mL.

**Q.** Which “fraction of a tablet given by mouth changed to metabolites” value ([1]; oral tablet, first-pass effect) does the source give for `CC(C)(C)c1ccc(C(O)CCCN2CCC(C(O)(c3ccccc3)c3ccccc3)CC2)cc1` (stereo not drawn) [terfenadine] here?
**A.** Its value is 99.5%.
